Data set [1] deals with ROS in Col‐0 and fer‐4 roots. Nature of the data set: ROS detection in plant roots (H2DCF-DA fluorescence). To be noted: 5 μM for 15 min, vs DMSO and lapatinib.
Another data set deals with ANJEA‐CD. Nature of the data set: ANJEA-CD kinase activity (autophosphorylation). To be noted: 5 μM. Format: biochemical, Arabidopsis thaliana.
The test system of data set [2] is Meloidogyne incognita. Nature of the data set: Rice root-knot nematode disease, preventive root treatment. Format: in vivo. To be noted: roots pretreated twice with 3 mL of 5 μM, 800 pre-J2s.
A further data set concerns PEPR1. Nature of the data set: PEPR1-CD kinase activity. Format: biochemical, Arabidopsis. The source says: (§1) Fig. S10. […] (a) Effects of FER inhibitors on the kinase activity of the Arabidopsis receptor kinase PEPR1 and CERK1 cytoplasmic domains (CDs). […] AT1G73080. […] AT3G21630. DMSO (0.05%; v/v) was used as a negative control. The data are shown as the means ± SDs (n = 4). The assay was repeated three times with similar results. ***, […]) Protein purification of PEPR1-CD and CERK1-CD. […] In (c and d), the data are presented as the means ± SDs of three biological replicates.

For another data set, the system named is HERK1‐CD. Nature of the data set: HERK1-CD kinase activity (autophosphorylation). The format is biochemical, Arabidopsis thaliana. To be noted: 5 μM.
The test system of another data set is CERK1. Nature of the data set: CERK1-CD kinase activity. The format is biochemical, Arabidopsis.
Description: as §1

Data set [3] has as its system Meloidogyne incognita. Nature of the data set: Established rice root-knot nematode disease (inhibitor applied after inoculation). Format: in vivo. To be noted: irrigated three days after inoculation.
Data set [4] has as its system Arabidopsis Col‐0 and fer‐4 seedlings. Nature of the data set: Growth of Arabidopsis seedlings (root length, shoot fresh weight). Conditions: 5 μM for 3 days, vs ddH2O (mock) and lapatinib.
The next data set relates to FRK1. To be noted: 5 μM for 24 h, confocal microscopy.
The next data set relates to Ralstonia solanacearum. Format: in vivo, tomato. Conditions: roots pretreated twice with 3 mL of 5 μM.
Data set [5] concerns FER cytoplasmic domain (FER‐CD). Nature of the data set: FER-CD kinase activity (autophosphorylation), high-throughput screening, Kinase-Lumi luminescent ATP consumption. Format: biochemical, Arabidopsis thaliana. Conditions: in vitro autophosphorylation.
Another data set deals with PER5. To be noted: 5 μM for 24 h, confocal microscopy.

SMILES strings stand for the structures. “Also recorded” adds a separate entry of the source.

On to `O=C(O)c1cc(N(Cc2ccccc2O)Cc2cc(O)ccc2O)ccc1O` [Lavendustin A], for which the “Production of ROS in Col-0 roots” value in [1] is listed as “significantly increased the production of ROS”. Besides, the “Inhibition rate of ANJEA-CD kinase activity” value with ANJEA‐CD is “lower than 55%”. Besides, the “Control of rice root-knot nematode disease” value with Meloidogyne incognita [2] is recorded as “better preventive effects than staurosporine; also recorded: alleviated soil‐borne diseases”. For the same compound, in the data set with PEPR1, the “Effect on PEPR1 kinase activity” value was “did not affect the kinase activity”. Further, the “Inhibition rate of HERK1-CD kinase activity” value with HERK1‐CD is on record as “lower than 55%”. For the same compound, the “Effect on CERK1 kinase activity” value with CERK1 is listed as “did not affect the kinase activity”. For the same compound, the “Effect on established rice root-knot nematode disease” value with Meloidogyne incognita [3] is listed as “could not completely prevent the occurrence of the diseases or cure already diseased plants”. Moreover, in [4], the “Growth of roots and shoots of Arabidopsis Col-0 seedlings” value was “significantly promoted root and shoot growth”. In the data set on FRK1, the “Expression of FRK1 in roots” value is “did not affect the expression levels”. Moreover, in the data set on Ralstonia solanacearum, the “Control of tomato bacterial wilt” value is “best control effect; also recorded: alleviated soil‐borne diseases”. Also, in data set [5], the “Effect on FER kinase activity” value is given as “inhibited the kinase activity of FER”. In the data set with PER5, the “Expression of PER5 in roots” value was “did not affect the expression levels”.
For `c1nc2nc(Nc3ccc(N4CCOCC4)cc3)nc(NC3CCCCC3)c2[nH]1` [Reversine], the “Production of ROS in Col-0 roots” value in [1] is “significantly increased the production of ROS”. The “Inhibition rate of ANJEA-CD kinase activity” value in the data set on ANJEA‐CD is recorded as “lower than 55%”. Also, in the data set with Meloidogyne incognita [2], the “Control of rice root-knot nematode disease” value is “better preventive effects than staurosporine; also recorded: alleviated soil‐borne diseases”. Besides, the “Effect on PEPR1 kinase activity” value in the data set with PEPR1 is “did not affect the kinase activity”. Also, the “Inhibition rate of HERK1-CD kinase activity” value in the data set on HERK1‐CD is reported as “lower than 55%”. Further, the “Effect on CERK1 kinase activity” value in the data set on CERK1 is on record as “did not affect the kinase activity”. Further, the “Effect on established rice root-knot nematode disease” value with Meloidogyne incognita [3] is reported as “could not completely prevent the occurrence of the diseases or cure already diseased plants”. In [4], the “Growth of roots and shoots of Arabidopsis Col-0 seedlings” value is “did not affect the growth of roots and shoots”. Also, the “Expression of FRK1 in roots” value in the data set on FRK1 is recorded as “did not affect the expression levels”. In the data set on Ralstonia solanacearum, the “Control of tomato bacterial wilt” value is reported as “alleviated soil‐borne diseases”. Moreover, in [5], the “Effect on FER kinase activity” value is on record as “inhibited the kinase activity of FER”. Besides, the “Expression of PER5 in roots” value in the data set with PER5 was “did not affect the expression levels”.

The values are drawn from publication PMC9829398 (Plant Biotechnology Journal, 2022).
